Read-outs that look alike come from different tables or passages of the source.
Legend:
[1] = Cytotoxicity (CC50) assay by CO-ADD; assay type: cell-based, human; conditions: human, HEK293 cells (ATCC CRL-1573); Table 1; cytotoxicity on HEK293 cells, tested at ≤32 µg/mL
[2] = system: C. albicans ATCC 90028; experiment: CO-ADD MIC assay, C. albicans ATCC 90028; assay type: cell-based; conditions: Candida albicans, ATCC90028, Table S1
Outline: (§1)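 Whole-cell growth inhibition (MIC) screening run by CO-ADD. Fluconazole served as antifungal positive control.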

[3] = system: E. coli ATCC 25922; experiment: Primary MIC assay, E. coli ATCC 25922; assay type: cell-based; conditions: Escherichia coli, ATCC25922; Table 1; read-out: MIC E. coli ATCC 25922
[4] = system: C. difficile; experiment: MIC against C. difficile, strain not given; assay type: cell-based; conditions: Clostridioides difficile, strains of Table 1
Procedure: Primary screening (Gram-positive bacteria). Primary MIC assays were performed as described by the Clinical and Laboratory Standards Institute for aerobic and anaerobic bacteria. MIC values for vancomycin were within acceptable QC ranges.

[5] = system: S. aureus ATCC 43300; experiment: CO-ADD MIC assay, S. aureus ATCC 43300 (MRSA); assay type: cell-based; conditions: Staphylococcus aureus, MRSA, read-out: MIC S. aureus ATCC 43300
Outline: (§2)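 Secondary screening was run by CO-ADD as whole-cell growth inhibition assays, with MIC as the read-out. Vancomycin, colistin, fluconazole and tamoxifen served as positive controls.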

[6] = system: C. difficile strain M7404 (RT027); experiment: In vivo murine model of CDI treatment; design: species or system C57BL/6J mice
Procedure: Disease Treatment Model. These experiments were performed as previously described. Mice were humanely killed at the onset of severe disease or at the end of the experiment (day 4), as previously described.
Statistical Analysis. Statistical analysis was performed using Prism 7 (GraphPad Software). The Kaplan–Meier survival curves were assessed using a log-rank (Mantel–Cox) test. Weight loss, spore shedding, fecal consistency, and physiological appearance data were analyzed by one-way ANOVA with a post hoc Tukey’s multiple comparison test. Differences in data values were considered significant at a p value of <0.05.
Figure 3 C57BL/6J mice (n = 5 per group) were infected with 10^5 spores of C. difficile strain M7404 (RT027). Six hours post-infection and then every 12 h thereafter, mice were administered either 10% DMSO (blue) or 2.5 mg (100 mg/kg in 10% DMSO) of compound 40 (red) by oral gavage. Mice were monitored daily for survival (a) and weight loss relative to day 0, which was the day of infection (b). Fecal spore load at 1-day post-infection was determined by plating (c). Data are presented as CFU/gram feces, with each point representing a single mouse. Mouse cages were scored on day 1 post-infection for appearance (d) and mice were individually assessed for fecal consistency (e) and physiological appearance (f). Data represent the mean ±S.E.M. and statistical significance was assessed using a log-rank (Mantel–Cox) test or one-way ANOVA with a post hoc Tukey’s multiple comparison test. […]
The murine model of CDI was conducted with project collaborators at Monash University. The murine model of CDI was performed by pretreating cohorts of five mice that had been earlier infected via oral gavage with hypervirulent M7404 C. difficile spores. The infection was allowed to develop for 12 h before the trial drug was administered every 12 h for five days. The mice received a single dosage of 2.5 mg of […] (i.e.
100 mg/kg for an average 25 g mouse) administered in a solvent mixture of 10% DMSO and H2O at each 12 h dosing period. The mice body weight was checked every day. If a mouse lost 10% of its body weight in the first 24 h, then the infection was developing, and the mouse was separated from the trial and culled for ethical reasons. The whole survival rate for every drug cohort was utilized to measure effectiveness of that drug.
Other physiological parameters such as cage appearance scores and faecal consistency scores were additional measures for the efficacy of the drug in this murine trial. The experimental data of the in vivo CDI model can be found in Section 3.3.3 and the experimental procedures can be found in Section 6.4.3.
Compound 40 was selected for a murine model of CDI study because of its better antimicrobial potency against C. difficile and its better water solubility profile (Section 3.2.7). Compound 40 was prepared on a larger scale i.e. nearly 300 mg for the purpose of in vivo mouse model of CDI at Monash University. […]
In the secondary CDI mouse model trial, the solution (10% v/v DMSO/H2O) of the compound 40 was ad-ministered to mice by oral gavage.

[7] = system: human erythrocytes; experiment: Hemolysis assay, HC50 determination; assay type: cell-based
Procedure: Hemolysis assay (human erythrocytes)–HC50 determination. These were performed as described previously.

[8] = system: C. difficile ATCC 700057; experiment: Primary MIC assay, C. difficile ATCC 700057; assay type: cell-based, Clostridioides difficile; conditions: Table 1; for MIC: Clostridioides difficile, ATCC700057, read-out: MIC C. difficile ATCC 700057
Outline: (§3)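 Screening is conducted by minimum inhibitory concentration testing according to CLSI aerobic or anaerobic protocols, as appropriate to each strain.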

[9] = system: A. baumannii ATCC 19606; experiment: CO-ADD MIC assay, A. baumannii ATCC 19606; assay type: cell-based; conditions: Acinetobacter baumannii, ATCC19606, Table S1
Outline: as §2

[10] = Comparative solubility assay (solubility ratio relative to compound 1); assay type: physicochemical
Description: While the selectivity ratio could be more substantial, this is acceptable for the future development of these gastrointestinal focused compounds. […] These outcomes were confirmed with no issues during the mouse model trials with sufficient solubility in the dosage regimen. Variations on the triazole and O-naphthyl substituents could be made in future studies with the view of enhancing antibacterial activity against C. difficile.

[11] = system: Cryptococcus neoformans var. grubii ATCC 208821; experiment: CO-ADD MIC assay, C. neoformans var. grubii ATCC 208821; assay type: cell-based; conditions: for MIC: Cryptococcus neoformans, ATCC208821, Table S1; for MIC C. neoformans var. grubii ATCC 208821: Table S1
Outline: as §1

[12] = system: P. aeruginosa ATCC 27853; experiment: CO-ADD MIC assay, P. aeruginosa ATCC 27853; assay type: cell-based; conditions: Pseudomonas aeruginosa, ATCC27853, Table S1
Outline: as §2

[13] = system: S. pneumoniae ATCC 49619; experiment: Primary MIC assay, S. pneumoniae ATCC 49619; assay type: cell-based, Streptococcus pneumoniae; conditions: Streptococcus pneumoniae, ATCC49619; Table 1; read-out: MIC S. pneumoniae ATCC 49619
Outline: as §3

[14] = system: K. pneumoniae ATCC 700603; experiment: CO-ADD MIC assay, K. pneumoniae ATCC 700603; assay type: cell-based; conditions: Klebsiella pneumoniae, ATCC700603, Table S1, multi-drug resistant
Outline: as §2

[15] = system: C. difficile 132 (RT027); experiment: Primary MIC assay, C. difficile 132 (RT027); assay type: cell-based, Clostridioides difficile; conditions: Table 1; for MIC: Clostridioides difficile, read-out: MIC C. difficile 132 (RT027)
Outline: as §3

[16] = system: S. aureus NCTC 10442; experiment: Primary MIC assay, S. aureus NCTC 10442 (MRSA); assay type: cell-based; conditions: Staphylococcus aureus, MRSA
Outline: as §3

[17] = system: E. coli ATCC 25922; experiment: CO-ADD MIC assay, E. coli ATCC 25922; assay type: cell-based; conditions: Escherichia coli, ATCC25922, Table S1
Outline: as §2

[18] = system: S. aureus ATCC 29213; experiment: Primary MIC assay, S. aureus ATCC 29213; assay type: cell-based; conditions: Staphylococcus aureus, ATCC29213; Table 1; read-out: MIC S. aureus ATCC 29213
Outline: as §3

[19] = system: E. faecalis ATCC 29212; experiment: Primary MIC assay, E. faecalis ATCC 29212; assay type: cell-based, Enterococcus faecalis; conditions: Enterococcus faecalis, ATCC29212; Table 1; read-out: MIC E. faecalis ATCC 29212
Outline: as §3

[20] = Table 1, lysis of human erythrocytes
[21] = Table 2, footnote says lysis of sheep erythrocytes
[22] = Table S1, footnote says lysis of sheep erythrocytes
[23] = MRSA / NCTC 10442 / NCTC 104422, Table 2, read-out: MIC S. aureus NCTC 104422
[24] = Table 1, read-out: MIC S. aureus NCTC 10442

SMILES	CC50 [1] [µg/mL]	MIC [2] [µg/mL]	MIC [3] [µg/mL]	MIC [4] [µg/mL]	MIC ([5]; Table 2) [µg/mL]	MIC ([5]; Table S1, CO-ADD) [µg/mL]	HC50 [7, 20] [µg/mL]	HC50 [7, 21] [µg/mL]	HC50 [7, 22] [µg/mL]	MIC [8] [µg/mL]	MIC C. difficile ATCC 700057 [8] [µg/mL]	MIC [9] [µg/mL]	relative solubility ratio (relative to compound 1) [10]	MIC [11] [µg/mL]	MIC C. neoformans var. grubii ATCC 208821 [11] [µg/mL]	MIC [12] [µg/mL]	MIC [13] [µg/mL]	MIC [14] [µg/mL]	MIC [15] [µg/mL]	MIC C. difficile 132 (RT027) [15] [µg/mL]	further results
CC(C)CCc1cn(-c2c(OCC(=O)N[C@H](CCCCN)C(=O)N[C@H](CCCNC(=N)N)Cn3cc(C4CCCCC4)nn3)ccc3ccccc23)nn1.Cl.Cl [Compound 40, (R)-6-Amino-N-((R)-1-(4-cyclohexyl-1H-1,2,3-triazol-1-yl)-5-guanidinopentan-2-yl)-2-(2-((1-(4-isopentyl-1H-1,2,3-triazol-1-yl)naphthalen-2-yl)oxy)acetamido)hexanamide dihydrochloride]	32	> 32	64	8	8	8	32	32	32	8	8	32	5	4 to 8	4	32	16	> 32	8	8	disease onset compared to mice treated with DMSO ([6]; 100 mg/kg oral gavage): delayed disease onset; effect on spore numbers shed in the feces ([6]; 1-day post-infection): no effect; greater survival compared with mice treated with DMSO ([6]; day 1 post-infection): 40%; individual fecal score vs DMSO group ([6]; day 1 post-infection): no significant difference; overall cage appearance score compared to DMSO ([6]; day 1 post-infection): lower; physiological appearance score vs DMSO group ([6]; day 1 post-infection): no significant difference; survival outcome ([6]; day 2): succumbed to infection by day 2; survival observed after 24 h ([6]; mice, 100 mg/kg in 10% DMSO by oral gavage every 12 h, DMSO control 40%): 80%; effect on mouse weight ([6]; weight loss relative to day 0): no effect; MIC [16, 23]: 16 µg/mL; MIC [16, 24]: 16 µg/mL; MIC [17]: 32 µg/mL; MIC [18]: 16 µg/mL; MIC [19]: 32 µg/mL
CC(C)CCc1cn(-c2c(OCC(=O)N[C@H](CCCCN)C(=O)N[C@H](CCCNC(=N)N)Cn3cc(Cc4ccccc4)nn3)ccc3ccccc23)nn1.Cl.Cl [Compound 42]	32	> 32	32	8	8	8	32	32	32	8	8	32	4	4 to 8	8	32	8	> 32	8	8	MIC [16, 23]: 8 µg/mL; MIC [16, 24]: 8 µg/mL; MIC [17]: 32 µg/mL; MIC [18]: 8 µg/mL; MIC [19]: 8 µg/mL

Source: paper PMC8388771, “Cationic Peptidomimetic Amphiphiles Having a N-Aryl- or N-Naphthyl-1,2,3-Triazole Core Structure Targeting Clostridioides (Clostridium) difficile: Synthesis, Antibacterial Evaluation, and an In Vivo C. difficile Infection Model” (Antibiotics, 2021)
